One substance from US4613503A, “Antibiotic A26201-1 and antibiotic A26201-2 produced by a novel strain of actinoplanes” (The Dow Chemical Company, priority 1984, dated 1986) can be followed below.

Format in all cases: cell-based
One assay has as its system Candida albicans. The assay is described as follows: Minimum inhibitory concentration, agar dilution. The following applies: trypticase soy agar, 2-fold serial dilutions. For orientation: Agar dilution tests growth on a series of plates holding different concentrations.
For assay [1], the system named is Fusobacterium necrophorum. The assay can be described thus: Minimum inhibitory concentration, agar dilution. The following applies: trypticase soy agar, 2-fold serial dilutions.
For another assay, the system named is Aspergillus niger. The assay can be described thus: Minimum inhibitory concentration, agar dilution. The following applies: trypticase soy agar, 2-fold serial dilutions.
Another assay concerns Bacteroides fragilis. The assay can be described thus: Minimum inhibitory concentration, agar dilution. Conditions: trypticase soy agar, 2-fold serial dilutions.
A further assay relates to Staphylococcus aureus. The assay can be described thus: Minimum inhibitory concentration, agar dilution. The following applies: trypticase soy agar, 2-fold serial dilutions.
The test system of another assay is Erwinia amylovora. The assay can be described thus: Minimum inhibitory concentration, agar dilution. The following applies: trypticase soy agar, 2-fold serial dilutions.
The next assay concerns Lactobacillus casei. The assay can be described thus: Minimum inhibitory concentration, agar dilution. Conditions: trypticase soy agar, 2-fold serial dilutions.
Another assay relates to Mucor miehei. The assay can be described thus: Minimum inhibitory concentration, agar dilution. Conditions: trypticase soy agar, 2-fold serial dilutions.
The subject of a further assay is Sarcina lutea. The assay is described as follows: Minimum inhibitory concentration, agar dilution. The following applies: trypticase soy agar, 2-fold serial dilutions.
For another assay, the system named is Streptococcus mutans. The assay is described as follows: Minimum inhibitory concentration, agar dilution. Conditions: trypticase soy agar, 2-fold serial dilutions.
The test system of another assay is Pseudomonas aeruginosa. The assay is described as follows: Minimum inhibitory concentration, agar dilution. Conditions: trypticase soy agar, 2-fold serial dilutions.
A further assay concerns Salmonella typhimurium. The assay is described as follows: Minimum inhibitory concentration, agar dilution. Conditions: trypticase soy agar, 2-fold serial dilutions.
For another assay, the system named is Actinomyces viscosus. The assay can be described thus: Minimum inhibitory concentration, agar dilution. Conditions: trypticase soy agar, 2-fold serial dilutions.
Another assay deals with Clostridium perfringens.
A further assay deals with Bacillus subtilis. The assay can be described thus: Minimum inhibitory concentration, agar dilution. The following applies: trypticase soy agar, 2-fold serial dilutions.
The test system of another assay is Streptococcus bovis. The assay can be described thus: Minimum inhibitory concentration, agar dilution. The following applies: trypticase soy agar, 2-fold serial dilutions.
The next assay relates to Escherchia coli. The assay is described as follows: Minimum inhibitory concentration, agar dilution. Conditions: trypticase soy agar, 2-fold serial dilutions.
The next assay has as its system Pircularia oryzae. The assay can be described thus: Minimum inhibitory concentration, agar dilution. The following applies: trypticase soy agar, 2-fold serial dilutions. How it is done: Minimum inhibitory concentrations (MIC's) were determined respectively for the crude broth material, antibiotic A26201, antibiotic A26201-1, antibiotic A26201-2, and gardimycin against a number of different microorganisms. The following techniques were used to determine the MIC's:
Thirty ml aliquots of trypticase soy agar were respectively placed in individual tubes. The agar was melted and then cooled to about 45° to 50° C. A concentration (2-fold serial dilutions of the highest concentration tested) of test antibiotic was added to each individual tube. Each test mixture was stirred and poured into an individual petri plate so that each petri plate contained a single concentration of antibiotic. When the agar hardened, the plates were inoculated with either aerobic or anaerobic test organisms. The plates inoculated with aerobic organisms were incubated at 37° C. for 24 hours and read for bacterial growth. The same plates were again incubated at 30° C. for an additional 48 hours at which point they were checked for yeast and fungal growth. The plates inoculated with anaerobic organisms were incubated at 37° C. in an anaerobic chamber and read at 48 hours.

The next assay deals with Streptococcus faecalis. The assay is described as follows: Minimum inhibitory concentration, agar dilution. Conditions: trypticase soy agar, 2-fold serial dilutions.
The next assay relates to Bacteroides multiacidus. The assay is described as follows: Minimum inhibitory concentration, agar dilution. Conditions: trypticase soy agar, 2-fold serial dilutions.
Another assay relates to Clostridium septicum. The assay is described as follows: Minimum inhibitory concentration, agar dilution. The following applies: trypticase soy agar, 2-fold serial dilutions.

Take gardimycin: the MIC is more than 75 µg/mL in the assay with Candida albicans; more than 75 µg/mL in assay [1]; more than 75 µg/mL with Aspergillus niger; more than 50 µg/mL against Bacteroides fragilis; 75 µg/mL in the assay with Staphylococcus aureus; more than 75 µg/mL with Erwinia amylovora. Besides, the minimal inhibitory concentration (MIC) against Lactobacillus casei is more than 75 µg/mL; in the assay on Mucor miehei, more than 75 µg/mL; against Sarcina lutea, 1.5 µg/mL; against Streptococcus mutans, more than 75 µg/mL; against Pseudomonas aeruginosa, more than 75 µg/mL; in the assay on Salmonella typhimurium, more than 75 µg/mL. Further, the minimal inhibitory concentration (MIC) is 12.5 µg/mL against Actinomyces viscosus; 3.1 µg/mL in the assay with Clostridium perfringens; 75 µg/mL with Bacillus subtilis; more than 75 µg/mL with Streptococcus bovis; more than 75 µg/mL against Escherchia coli; more than 75 µg/mL in the assay on Pircularia oryzae. For the same substance, the values for the minimal inhibitory concentration (MIC) against Streptococcus faecalis, against Bacteroides multiacidus and in the assay with Clostridium septicum were 25 µg/mL, more than 50 µg/mL and 3.1 µg/mL, respectively.

Usually MIC stands for the smallest concentration in the dilution series that meets the test's criterion for growth inhibition. The low end stands for greater potency, the high end for weaker potency.
